Results: BindingDB's records for patent US11884682 (Nanjing Immunophage Biotech Co., 2024)
pIC50: −log10 of the molar value.

Target: T1, Macrophage migration inhibitory factor (Homo sapiens, UniProt P14174)
T1 sequence (P14174 whole entry): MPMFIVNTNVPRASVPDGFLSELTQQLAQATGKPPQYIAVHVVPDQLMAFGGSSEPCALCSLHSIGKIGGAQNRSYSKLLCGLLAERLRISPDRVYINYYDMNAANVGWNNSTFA
Test: MIF Enzymatic Assay
Procedure: Assays were performed in small-volume clear-bottom black 96 or 384-well polystyrene plates (Greiner Bio-One). First, 2 μL of the enzyme solution containing 6 nM of MIF in DPBS, 0.025% w/v BSA, and 300 μM CHAPS was dispensed onto sample and negative control wells using Multidrop Combi with metallic tip cassettes (Thermo Fisher Scientific) previously treated with Sigmacote. Then, 2 μL of the same buffer without MIF was dispensed onto positive control wells. […] In order to remove bubbles, the plate was centrifuged in an Allegra 25R centrifuge (Beckman Coulter, Inc., Brea, CA) at 1000 rpm for 2 min at room temperature. Then, the plate was read in an EnVision. Final concentrations of enzyme and substrate were 3 nM and 1.5 mM, respectively. Initial rates were calculated for each well as the slope of the absorbance progress curve.

pIC50	Structure (SMILES)
6.24	COc1cc(N2CCC(O)C2)ccc1C(=O)NCc1nnc(-c2cccs2)o1 (stereo not drawn) [US11884682, Compound 78]
6.15	COc1cc(NCCO)ccc1C(=O)NCc1nnc(-c2cccs2)o1 [US11884682, Compound 79]
5.60	COc1cc(OC2CCNC2)ccc1C(=O)NCc1nnc(-c2cccs2)o1 (stereo not drawn) [US11884682, Compound 81]
